Read-outs that look alike come from different tables or passages of the source.
Columns and labels:
SUDHL5 [1] = assay: Induction of cytotoxicity (CellTiter-Glo, 5 h), SUDHL5
SUDHL5 [2] = assay: Anti-proliferative effect (CellTiter-Glo, 72 h), SUDHL5; type: cell-based; settings: SUDHL5 cells, antiproliferation, median, read-out: Antiproli SUDHL5 [M] (median)
How it was run: (§1)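 Anti-proliferative activity is derived from ATP-based luminescence (CellTiter-Glo) in cells exposed to compound for 72 h at 37 °C, set against a time zero plate read at seeding.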

SUDHL10 [3] = assay: Anti-proliferative effect (CellTiter-Glo, 72 h), SUDHL10; type: cell-based; settings: SUDHL10 cells, antiproliferation, median, read-out: Antiproli SUDHL10 [M] (median)
How it was run: as §1

SUDHL10 [4] = assay: Induction of caspase-3/7 activity (Caspase-Glo 3/7), SUDHL10; type: cell-based; settings: caspase-3/7 induction, SUDHL10 cells, 3 h treatment, median
How it was run: (§2)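 Caspase-Glo 3/7 luminescence measured after 3 h compound exposure at 37 °C in SUDHL10 and SUDHL5 cells. EC50 values come from background-corrected signals, with curve bottom set to 1 and plateau set to maximal induction by the reference compound.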

SUDHL5 [5] = assay: Induction of caspase-3/7 activity (Caspase-Glo 3/7), SUDHL5; type: cell-based; settings: caspase-3/7 induction, SUDHL5 cells, 3 h treatment, median
How it was run: as §2

MCL-1 = MCL-1 (Homo sapiens, UniProt Q07820); assay: Protein-protein interaction assay MCL-1/Noxa BH3 peptide (MCL-1 assay), TR-FRET; type: binding; settings: MBP-MCL-1 / Noxa BH3-derived peptide, median
Sequence of MCL-1 (Q07820 whole entry): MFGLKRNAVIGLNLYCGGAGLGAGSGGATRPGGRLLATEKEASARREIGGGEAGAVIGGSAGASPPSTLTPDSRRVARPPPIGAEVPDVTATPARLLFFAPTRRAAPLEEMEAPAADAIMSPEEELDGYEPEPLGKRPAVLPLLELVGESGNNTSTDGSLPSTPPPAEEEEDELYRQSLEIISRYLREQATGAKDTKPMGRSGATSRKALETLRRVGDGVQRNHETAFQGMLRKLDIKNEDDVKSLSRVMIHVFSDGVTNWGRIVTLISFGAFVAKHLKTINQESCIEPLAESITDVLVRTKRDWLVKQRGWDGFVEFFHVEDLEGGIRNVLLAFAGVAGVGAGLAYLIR
How it was run: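 MBP-MCL-1 (1 nM final) was preincubated 10 min at 22 °C with compounds (11 concentrations, 0.1 nM–20 μM, duplicates) in Tris pH 7 buffer with NaCl, KF, Tween-20, DTT and BGG. After 1 h at 22 °C in the dark plus overnight at 4 °C, anti-MBP Eu-cryptate/streptavidin-XL665 TR-FRET was read; IC50 came from a 4-parameter fit.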

SUDHL10 [6] = assay: Induction of cytotoxicity (CellTiter-Glo, 5 h), SUDHL10
A2780 = assay: Anti-proliferative effect (CellTiter-Glo, 72 h), A2780; type: cell-based; settings: A2780 cells, median, read-out: IC50 antiproliferation assay A2780 [M] (median)
How it was run: as §1

[7] = Homo sapiens, SU-DHL-5, 5 h, read-out: Cytotox SUDHL5 [M] (median), SUDHL5 cells, cytotoxicity induction, CellTiter-Glo, 5 h incubation, median
[8] = Homo sapiens, SU-DHL-5, 72 h, 72 h incubation
[9] = Homo sapiens, SU-DHL10, 72 h, 72 h incubation
[10] = Homo sapiens, SU-DHL10, 5 h, read-out: Cytotox SUDHL10 [M] (median), SUDHL10 cells, cytotoxicity induction, CellTiter-Glo, 5 h incubation, median
[11] = read-out: Cytotox SUDHL5 [M] (median), SUDHL5 cells, cytotoxicity induction, CellTiter-Glo, 5 h incubation, median
[12] = read-out: Cytotox SUDHL10 [M] (median), SUDHL10 cells, cytotoxicity induction, CellTiter-Glo, 5 h incubation, median

Question: `CCc1nn(C)c2c1-c1c(C)ccc3c(CCCOc4cccc5c4CCCC5)c(C(=O)O)n(c13)CCCCOC2` (racemic) [Example 270, (rac)-12-ethyl-10,13-dimethyl-1-(3-((5,6,7,8-tetrahydronaphthalen-1-yl)oxy)propyl)-4,5,6,7,9,10-hexahydropyrazolo[4′,3′:9,10][1]oxa[6]azacycloundecino[8,7,6-hi]indole-2-carboxylic Acid] was tested. Which IC50 (SUDHL5 [1]; [7]) did it give?
Answer: 5.39e-06 M

Question: What about the IC50 (SUDHL5 [2]; [8]) of the same compound?
Answer: 5.37e-06 M

Question: What about the IC50 (SUDHL10 [3]; [9]) of the same compound?
Answer: 1.2e-05 M

Question: What about the EC50 (SUDHL10 [4]; Homo sapiens, SU-DHL10, 3 h) of the same compound?
Answer: 19.3 µM

Question: And the EC50 (SUDHL5 [5]; Homo sapiens, SU-DHL-5, 3 h)?
Answer: 6.18 µM

Question: What about the IC50 (MCL-1) of the same compound?
Answer: 0.00578 µM

Question: And the IC50 (SUDHL10 [6]; [10])?
Answer: 2.19e-05 M

Question: And the IC50 (A2780; Homo sapiens, A2780, 72 h)?
Answer: > 3.3e-05 M

Question: For `CCc1c2c(nn1CCN1CCOCC1)COCCCCn1c(C(=O)O)c(CCCOc3cccc4ccccc34)c3cccc-2c31` (single isomer, unassigned; enantiomer 1) [Example 202, 3-ethyl-2-[2-(morpholin-4-yl)ethyl]-7-[3-(naphthalen-1-yloxy)propyl]-2,10,11,12,13,15-hexahydropyrazolo[4′,3′:9,10][1,6]oxazacycloundecino[8,7,6,6-hi]indole-8-carboxylic Acid (Enantiomer 1)], which IC50 (SUDHL5 [1]; [11]) is on record?
Answer: > 3.3e-05 M

Question: And the IC50 (SUDHL5 [2]; 72 h incubation)?
Answer: 2.52e-05 M

Question: And the IC50 (SUDHL10 [3]; 72 h incubation)?
Answer: 1.74e-05 M

Question: What about the EC50 (SUDHL10 [4]) of the same compound?
Answer: > 33 µM

Question: And the EC50 (SUDHL5 [5])?
Answer: 30.2 µM

Question: What about the IC50 (MCL-1) of the same compound?
Answer: 0.0462 µM

Question: And the IC50 (SUDHL10 [6]; [12])?
Answer: 2.87e-05 M

Question: What about the IC50 (A2780; Homo sapiens, A2780, 72 h) of the same compound?
Answer: 3.17e-05 M

Question: With `CCc1nn(C)c2c1-c1c(C)ccc3c(CCCOc4cc(C)c(Cl)c(C)c4)c(C(=O)O)n(c13)CCCCOC2` (racemic) [Example 269, (rac)-1(3-(4-chloro-3,5-dimethylphenoxy)propyl)-12-ethyl-10,13-dimethyl-4,5,6,7,9,10-hexahydropyrazolo[4′,3′:9,10][1]oxa[6]azacycloundecino[8,7,6-hi]indole-2-carboxylic Acid] as the compound, how does the IC50 (SUDHL5 [1]; [7]) read?
Answer: 4.98e-06 M

Question: And the IC50 (SUDHL5 [2]; [8])?
Answer: 2.26e-06 M

Question: What about the IC50 (SUDHL10 [3]; [9]) of the same compound?
Answer: 7.27e-06 M

Question: And the EC50 (SUDHL10 [4]; Homo sapiens, SU-DHL10, 3 h)?
Answer: 13.2 µM

Question: What about the EC50 (SUDHL5 [5]; Homo sapiens, SU-DHL-5, 3 h) of the same compound?
Answer: 4.83 µM

Question: And the IC50 (MCL-1)?
Answer: 0.00774 µM

Question: And the IC50 (SUDHL10 [6]; [10])?
Answer: 1.47e-05 M

Question: What about the IC50 (A2780; Homo sapiens, A2780, 72 h) of the same compound?
Answer: 2.93e-05 M

Question: Which results are given for `Cn1nc(CN2CCCC2=O)c2c1COCCCCn1c(C(=O)O)c(CCCOc3cccc4ccccc34)c3cccc-2c31` (racemic) [Example 328, (rac)-1-methyl-7-[3-(naphthalen-1-yloxy)propyl]-3-[(2-oxopyrrolidin-1-yl)methyl]-1,10,11,12,13,15-hexahydropyrazolo[4′,3′:9,10][1,6]oxazacycloundecino[8,7,6-hi]indole-8-carboxylic Acid]?
Answer: IC50 (SUDHL5 [1]; Homo sapiens, SU-DHL-5, 5 h, read-out: Cytotox SUDHL5 [M] (median), SUDHL5 cells, cytotoxicity induction, CellTiter-Glo, 5 h, median): > 3.3e-05 M; IC50 (SUDHL5 [2]; Homo sapiens, SU-DHL-5, 72 h, 72 h): 1.87e-05 M; IC50 (SUDHL10 [3]; Homo sapiens, SU-DHL10, 72 h, 72 h): 1.9e-05 M; EC50 (SUDHL10 [4]; Homo sapiens, SU-DHL10, 3 h): > 33 µM; EC50 (SUDHL5 [5]; Homo sapiens, SU-DHL-5, 3 h): > 33 µM; IC50 (MCL-1): 0.0467 µM; IC50 (SUDHL10 [6]; Homo sapiens, SU-DHL10, 5 h, read-out: Cytotox SUDHL10 [M] (median), SUDHL10 cells, cytotoxicity induction, CellTiter-Glo, 5 h, median): > 3.3e-05 M; IC50 (A2780; Homo sapiens, A2780, 72 h): > 3.3e-05 M

Question: For `CCc1nn(CCN2CCOCC2)c2c1-c1cccc3c(CCCOc4cccc5ccccc45)c(C(=O)O)n(c13)CCCCOC2` (single isomer, unassigned; enantiomer 2) [Example 200, 3-ethyl-1-[2-(morpholin-4-yl)ethyl]-7-[3-(naphthalen-1-yloxy)propyl]-1,10,11,12,13,15-hexahydropyrazolo[4′3′:9,10][1,6]oxazacycloundecino[8,7,6-hi]indole-carboxylic Acid (Enantiomer 2)], which IC50 (SUDHL5 [1]; [11]) is on record?
Answer: 2.41e-05 M

Question: What about the IC50 (SUDHL5 [2]; 72 h incubation) of the same compound?
Answer: 1.87e-05 M

Question: What about the IC50 (SUDHL10 [3]; 72 h incubation) of the same compound?
Answer: 1.12e-05 M

Question: And the EC50 (SUDHL10 [4])?
Answer: 18.8 µM

Question: And the EC50 (SUDHL5 [5])?
Answer: > 33 µM

Question: What about the IC50 (MCL-1) of the same compound?
Answer: 0.0248 µM

Question: And the IC50 (SUDHL10 [6]; [12])?
Answer: 1.99e-05 M

Question: What about the IC50 (A2780) of the same compound?
Answer: 2.57e-05 M

From patent US10981932B2, “Macrocyclic indole derivatives” (Bayer Aktiengesellschaft, priority 2016, dated 2021)
